Measurements from patent US20240209053A1 (Protagonist Therapeutics, Inc., priority 2021, published 2024).
pIC50: −log10 of the molar value. Numbered stars: 1 amine (or outer) side, 2 acyl side, 3 side chain; on linkers, the order of the positions; unused ones are H or OH. Bridge positions count the residues as written; N and C are the ends. Square brackets hold non-standard residues; d marks the D form. Side chains are listed from the residue outwards. Peptide text beside a SMILES is read from it. * marks the point of attachment. Dip = N[C@H](C(=O)O)C(c1ccccc1)c1ccccc1; Hag = O=C([C@H](CCC=[*:3])N[*:1])[*:2]; Palmitoyl = CCCCCCCCCCCCCCCC(=O)*; β3hF = N[C@H](CC(=O)O)Cc1ccccc1; Isovaleryl = CC(C)CC(=O)*; Ahx = NCCCCCC(=O)O

Key:
ferroportin = molecular target: T1, ferroportin (Homo sapiens, UniProt Q9NP59); test: T47D cell-based ferroportin internalization assay in presence of 0.5% mouse serum albumin (MSA); conditions: T47D cells
T1 sequence (Q9NP59 1-571): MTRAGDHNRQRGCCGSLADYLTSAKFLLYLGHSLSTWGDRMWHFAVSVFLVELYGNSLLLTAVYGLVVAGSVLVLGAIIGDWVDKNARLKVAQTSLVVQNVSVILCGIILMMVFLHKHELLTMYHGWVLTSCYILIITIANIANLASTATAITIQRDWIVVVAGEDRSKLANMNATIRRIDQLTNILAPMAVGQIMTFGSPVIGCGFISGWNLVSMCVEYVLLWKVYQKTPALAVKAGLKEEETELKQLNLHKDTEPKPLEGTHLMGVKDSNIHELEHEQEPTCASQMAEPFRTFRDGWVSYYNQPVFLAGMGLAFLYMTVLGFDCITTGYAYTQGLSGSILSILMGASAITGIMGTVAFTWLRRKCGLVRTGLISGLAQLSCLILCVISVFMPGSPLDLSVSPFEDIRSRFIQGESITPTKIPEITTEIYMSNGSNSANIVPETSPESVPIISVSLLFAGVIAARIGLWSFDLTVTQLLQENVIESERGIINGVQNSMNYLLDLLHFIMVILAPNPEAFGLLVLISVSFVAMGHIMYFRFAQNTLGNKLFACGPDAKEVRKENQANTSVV
Protocol: The potency of the peptides in causing ferroportin internalization was evaluated in a T47D cell-based assay. […] In this internalization assay, the potency of the test peptides was evaluated in presence of serum albumin which is the main protein component in the blood. T47D cells were maintained in RPMI media (containing required amount of fetal bovine serum) and regularly sub-cultured. In preparation for the assay, the cells were seeded in 96-well plates at a density of 80-100 k cells per well in 100 ul volume and allowed to rest overnight. On the next day, test peptides were first prepared in dilution series (10-point series, starting concentration of ˜5 μM, typically 3-4×fold dilution steps), all with 0.5% mouse serum albumin (MSA purified from mouse serum; Sigma, A3139). The test peptide dilution series were allowed to incubate at room temperature for 30 min. Then the media was aspirated from the 96-well cell plate and test peptide dilution series were added. After 1 hr incubation, the media with test peptides was aspirated out and AF647-conjugated detection peptide was added at fixed concentration of 200 nM. The AF647-conjugated detection peptide was previously verified to bind to ferroportin and cause its internalization. The cells were washed again after a 2 hr incubation in preparation for flow cytometry analysis. The Median Fluorescence Intensity (MFI) of the AF647-positive population was measured (after removing dead cells and non-singlets from the analysis). The MFI values were used to generate a dose-response curve and obtain IC50 potencies for the test peptides. The IC50 potencies were calculated by using 4-parameter non-linear fitting function in Graphpad Prism (Table 6A).

[1] = molecular target: T2, human ferroportin (SLC40A1) (Homo sapiens, UniProt Q9NP59); test: FPN activity assay: internalization/degradation of ferroportin-GFP in stably transfected HEK293 cells (decrease in GFP fluorescence); assay type: cell-based; conditions: compound incubated at least 18 hours
T2 sequence (Q9NP59 1-571): T1 sequence (Q9NP59 1-571)
Protocol: Peptide analogues were tested in vitro for induction of internalization of the human ferroportin protein. Following internalization, the ferroporin protein is degraded. The assay used (FPN activity assay) measures a decrease in fluorescence of the receptor. The cDNA encoding the human ferroportin (SLC40A1) was cloned from a cDNA clone from Origene (NM_014585). The DNA encoding the ferroportin was amplified by PCR using primers also encoding terminal restriction sites for subcloning, but without the termination codon. The ferroportin receptor was subcloned into a mammalian GFP expression vector containing a neomycin (G418) resistance marker in such that the reading frame of the ferroportin was fused in frame with the GFP protein. The fidelity of the DNA encoding the protein was confirmed by DNA sequencing. HEK293 cells were used for transfection of the ferroportin-GFP receptor expression plasmid. The cells were grown according to standard protocol in growth medium and transfected with the plasmids using Lipofectamine (manufacturer's protocol, Invitrogen). The cells stably expressing ferroportin-GFP were selected using G418 in the growth medium (in that only cells that have taken up and incorporated the cDNA expression plasmid survive) and sorted several times on a Cytomation MoFloTM cell sorter to obtain the GFP-positive cells (488 nm/530 nm). The cells were propagated and frozen in aliquots. […] Compound was added to desired final concentration for at least 18 hours in the incubator. […] Compound was added to desired final concentration for at least 18 hours but no more than 24 hours in the incubator. […] The “RI” in RI-Mini-Hepcidin refers to Retro Inverse. A retro inverse peptide is a peptide with a reversed sequence in all D amino acids. An example is that […] becomes […]. The EC50 of these reference compounds for ferroportin internalization/degradation was determined according to the FPN activity assay described above. These peptides served as control standards.

Row | Structure (SMILES) | pIC50 (ferroportin) | pIC50 [1]
1 | CCCCCCCCCCCCCCCC(=O)NCCCCCC(=O)NCCCC[C@H](NC(=O)C[C@H](Cc1ccccc1)NC(=O)[C@@H]1CC=CCC[C@H](NC(=O)CC(C)C)C(=O)N[C@@H]([C@@H](C)O)C(=O)N[C@@H](Cc2c[nH]cn2)C(=O)N[C@@H](C(c2ccccc2)c2ccccc2)C(=O)N2CCC[C@H]2C(=O)N[C@@H](C)C(=O)N[C@@H]([C@@H](C)CC)C(=O)N1)C(=O)N[C@H](CCCCN)C(N)=O [Compd 26] | 7.00 to 8.00 | 7.00 to 8.00
2 | CCCCCCCCCCCCCCCC(=O)NCCCCCC(=O)NCCCC[C@H](NC(=O)C[C@H](Cc1ccccc1)NC(=O)[C@@H]1CCC=CC[C@H](NC(=O)CC(C)C)C(=O)N[C@@H]([C@@H](C)O)C(=O)N[C@@H](Cc2c[nH]cn2)C(=O)N[C@@H](C(c2ccccc2)c2ccccc2)C(=O)N2CCC[C@H]2C(=O)N[C@@H](C)C(=O)N[C@@H]([C@@H](C)CC)C(=O)N1)C(=O)N[C@H](CCCCN)C(N)=O [Compd 27] | 7.00 to 8.00 | 7.00 to 8.00
3 | CCCCCCCCCCCCCCCC(=O)NCCCCCC(=O)NCCCC[C@H](NC(=O)C[C@H](Cc1ccccc1)NC(=O)[C@@H]1CCCC=CCCC[C@H](NC(=O)CC(C)C)C(=O)N[C@@H]([C@@H](C)O)C(=O)N[C@@H](Cc2c[nH]cn2)C(=O)N[C@@H](C(c2ccccc2)c2ccccc2)C(=O)N2CCC[C@H]2C(=O)N[C@@H](C)C(=O)N[C@@H]([C@@H](C)CC)C(=O)N1)C(=O)N[C@H](CCCCN)C(N)=O [Compd 28] | 8.00 to 9.00 | 8.00 to 9.00
4 | CCCCCCCCCCCCCCCC(=O)NCCCCCC(=O)NCCCC[C@H](NC(=O)C[C@H](Cc1ccccc1)NC(=O)[C@@H]1CCC=CCCC[C@H](NC(=O)CC(C)C)C(=O)N[C@@H]([C@@H](C)O)C(=O)N[C@@H](Cc2c[nH]cn2)C(=O)N[C@@H](C(c2ccccc2)c2ccccc2)C(=O)N2CCC[C@H]2C(=O)N[C@@H](C)C(=O)N[C@@H]([C@@H](C)CC)C(=O)N1)C(=O)N[C@H](CCCCN)C(N)=O [Compd 29] | 8.00 to 9.00 | 8.00 to 9.00
5 | CCCCCCCCCCCCCCCC(=O)NCCCCCC(=O)NCCCC[C@H](NC(=O)C[C@H](Cc1ccccc1)NC(=O)[C@@H]1CC=CCCC[C@H](NC(=O)CC(C)C)C(=O)N[C@@H]([C@@H](C)O)C(=O)N[C@@H](Cc2c[nH]cn2)C(=O)N[C@@H](C(c2ccccc2)c2ccccc2)C(=O)N2CCC[C@H]2C(=O)N[C@@H](C)C(=O)N[C@@H]([C@@H](C)CC)C(=O)N1)C(=O)N[C@H](CCCCN)C(N)=O [Compd 30] | 8.00 to 9.00 | 8.00 to 9.00
6 | CCCCCCCCCCCCCCCC(=O)NCCCCCC(=O)NCCCC[C@H](NC(=O)C[C@H](Cc1ccccc1)NC(=O)[C@@H]1CCCC=CCC[C@H](NC(=O)CC(C)C)C(=O)N[C@@H]([C@@H](C)O)C(=O)N[C@@H](Cc2c[nH]cn2)C(=O)N[C@@H](C(c2ccccc2)c2ccccc2)C(=O)N2CCC[C@H]2C(=O)N[C@@H](C)C(=O)N[C@@H]([C@@H](C)CC)C(=O)N1)C(=O)N[C@H](CCCCN)C(N)=O [Compd 31] | 7.00 to 8.00 | 7.00 to 8.00
7 | CCCCCCCCCCCCCCCC(=O)NCCCCCC(=O)NCCCC[C@@H]1NC(=O)[C@@H]2CCCN2C(=O)[C@H](C(c2ccccc2)c2ccccc2)NC(=O)[C@H](Cc2c[nH]cn2)NC(=O)[C@H]([C@@H](C)O)NC(=O)[C@@H](NC(=O)CC(C)C)CCCC=CCCC[C@@H](C(=O)N[C@H](CC(=O)N[C@H](CCCCN)C(N)=O)Cc2ccccc2)NC(=O)[C@H]([C@@H](C)CC)NC1=O [Compd 33] | 8.00 to 9.00 | 8.00 to 9.00
8 | CCCCCCCCCCCCCCCC(=O)NCCCCCC(=O)NCCCC[C@@H]1NC(=O)[C@H](C)NC(=O)[C@@H]2CCCN2C(=O)[C@H](C(c2ccccc2)c2ccccc2)NC(=O)[C@H](Cc2c[nH]cn2)NC(=O)[C@H]([C@@H](C)O)NC(=O)[C@@H](NC(=O)CC(C)C)CCCC=CCCC[C@@H](C(=O)N[C@H](CC(=O)N[C@H](CCCCN)C(N)=O)Cc2ccccc2)NC1=O [Compd 34] | 8.00 to 9.00 | 8.00 to 9.00
9 | CCCCCCCCCCCCCCCC(=O)NCCCCCC(=O)NCCCC[C@@H]1NC(=O)[C@@H]2CCCN2C(=O)[C@H](C(c2ccccc2)c2ccccc2)NC(=O)[C@H](Cc2c[nH]cn2)NC(=O)[C@H]([C@@H](C)O)NC(=O)[C@@H](NC(=O)CC(C)C)CCC=CCC[C@@H](C(=O)N[C@H](CC(=O)N[C@H](CCCCN)C(N)=O)Cc2ccccc2)NC(=O)[C@H]([C@@H](C)CC)NC1=O [Compd 36] | 8.00 to 9.00 | 7.00 to 8.00
10 | CCCCCCCCCCCCCCCC(=O)NCCCCCC(=O)NCCCC[C@H](NC(=O)C[C@H](Cc1ccccc1)NC(=O)[C@@H]1CCC=CCC[C@H](NC(=O)CC(C)C)C(=O)N[C@@H](C)C(=O)N[C@@H](Cc2c[nH]cn2)C(=O)N[C@@H](C(c2ccccc2)c2ccccc2)C(=O)N2CCC[C@H]2C(=O)N[C@@H](C)C(=O)N[C@@H]([C@@H](C)CC)C(=O)N1)C(=O)N[C@H](CCCCN)C(N)=O [Compd 41] (Isovaleryl-[Hag]AH[Dip]PAI[Hag][β3hF]K([Ahx-Palmitoyl])[dK]-NH2; staple 1-8) | 6.30 to 7.00 | 6.30 to 7.00
11 | CCCCCCCCCCCCCCCC(=O)NCCCCCC(=O)NCCCC[C@H](NC(=O)C[C@H](Cc1ccccc1)NC(=O)[C@@H]1CCC=CCC[C@H](NC(=O)CC(C)C)C(=O)N[C@@H]([C@@H](C)O)C(=O)N[C@@H](C)C(=O)N[C@@H](C(c2ccccc2)c2ccccc2)C(=O)N2CCC[C@H]2C(=O)N[C@@H](C)C(=O)N[C@@H]([C@@H](C)CC)C(=O)N1)C(=O)N[C@H](CCCCN)C(N)=O [Compd 42] (Isovaleryl-[Hag]TA[Dip]PAI[Hag][β3hF]K([Ahx-Palmitoyl])[dK]-NH2; staple 1-8) | 6.30 to 7.00 | 6.30 to 7.00
12 | CCCCCCCCCCCCCCCC(=O)NCCCCCC(=O)NCCCC[C@H](NC(=O)C[C@H](Cc1ccccc1)NC(=O)[C@@H]1CCC=CCC[C@H](NC(=O)CC(C)C)C(=O)N[C@@H]([C@@H](C)O)C(=O)N[C@@H](Cc2c[nH]cn2)C(=O)N[C@@H](C(c2ccccc2)c2ccccc2)C(=O)N2CCC[C@H]2C(=O)N[C@@H](C)C(=O)N[C@@H](C)C(=O)N1)C(=O)N[C@H](CCCCN)C(N)=O [Compd 45] (Isovaleryl-[Hag]TH[Dip]PAA[Hag][β3hF]K([Ahx-Palmitoyl])[dK]-NH2; staple 1-8) | 7.00 to 8.00 | 7.00 to 8.00
13 | CCCCCCCCCCCCCCCC(=O)NCCCCCC(=O)NCCCC[C@H](NC(=O)[C@H](C)NC(=O)[C@@H]1CCC=CCC[C@H](NC(=O)CC(C)C)C(=O)N[C@@H]([C@@H](C)O)C(=O)N[C@@H](Cc2c[nH]cn2)C(=O)N[C@@H](C(c2ccccc2)c2ccccc2)C(=O)N2CCC[C@H]2C(=O)N[C@@H](C)C(=O)N[C@@H]([C@@H](C)CC)C(=O)N1)C(=O)N[C@H](CCCCN)C(N)=O [Compd 46] (Isovaleryl-[Hag]TH[Dip]PAI[Hag]AK([Ahx-Palmitoyl])[dK]-NH2; staple 1-8) | 6.30 to 7.00 | 6.30 to 7.00
14 | CC[C@H](C)[C@@H]1NC(=O)[C@H](C)NC(=O)[C@@H]2CCCN2C(=O)[C@H](C(c2ccccc2)c2ccccc2)NC(=O)[C@H](Cc2c[nH]cn2)NC(=O)[C@H]([C@@H](C)O)NC(=O)[C@@H](NC(=O)CC(C)C)CCC=CCC[C@@H](C(=O)N[C@H](CC(=O)N[C@@H](C)C(=O)N[C@H](CCCCN)C(N)=O)Cc2ccccc2)NC1=O [Compd 47] (Isovaleryl-[Hag]TH[Dip]PAI[Hag][β3hF]A[dK]-NH2; staple 1-8) | 7.00 to 8.00 | 7.00 to 8.00
